In ChEMBL document CHEMBL5241091, “Biguanides drugs: Past success stories and promising future for drug discovery” (Eur J Med Chem, 2021):
Converted amounts (≈) assume the structure as drawn. Blank lines part the entries; values can stand above or below the compound they belong to.

Key:
[1] = Half life in po dosed human; format: ADME, organism-based; settings: in vivo
[2] = Toxicity in rat; settings: in vivo
SW-620 = assay: Synergistic antiproliferative activity against human SW620 cells assessed as reduction in cancer stem cells preincubated for 24 hrs followed by 5-FU addition and measured after 48 hrs (reference value: 21.30 +/- 1.40 %); format: functional; parameters: scale not given: the % may be the effect or the level left
MCF7 [3] = assay: Cytotoxicity against human MCF7 cells assessed as reduction in breast cancer stem cells at 5 mM after 48 hrs (reference value: 2.78%); format: functional; parameters: scale not given: the % may be the effect or the level left
MCF7 [4] = assay: Cytotoxicity against human MCF7 cells assessed as reduction in breast cancer stem cells at 1 mM after 48 hrs (reference value: 2.78%); format: functional; parameters: scale not given: the % may be the effect or the level left
[5] = Toxicity in po dosed mouse; format: organism-based; settings: in vivo
Homo sapiens = species on record: Homo sapiens; assay: Antidiabetic activity in human assessed as reduction in hepatic glucose output; format: functional; parameters: scale not given: the % may be the effect or the level left
Cavia porcellus = assay: Hypoglycemic activity in sc dosed guinea pig assessed as glucose lowering effect; format: functional
[6] = Toxicity in sc dosed mouse; format: organism-based; settings: in vivo
Plasmodium falciparum [7] = assay: Antimalarial activity against Plasmodium falciparum CH12; format: functional, organism-based
[8] = Oral bioavailability in rat; format: ADME, organism-based; settings: in vivo
Streptococcus = assay: Antibacterial activity against Streptococcus beta-haemolyticus; format: functional
Clostridium septicum = assay: Antibacterial activity against Clostridium septicum; format: functional
Streptococcus pyogenes = assay: Antibacterial activity against Streptococcus pyogenes; format: functional
Plasmodium falciparum [9] = assay: Antimalarial activity against Plasmodium falciparum GA3; format: functional, organism-based
Plasmodium berghei [10] = assay: Potency index, ratio of chloroquine ED50 to test compound ED50 for antimalarial activity against Plasmodium berghei infected in mouse; format: functional
Plasmodium berghei [11] = assay: Potency index, ratio of cycloguanil ED50 to test compound ED50 for antimalarial activity against Plasmodium berghei infected in mouse; format: functional
[12] = Inhibition of Plasmodium knowlesi DHFR

half-life [1]: 35 h
SMILES: CC(C)NC(=N)NC(=N)Nc1ccc(Cl)c(Cl)c1 [CHLORPROGUANIL]

SMILES: CN(C)C(=N)NC(=N)N [METFORMIN]
LD50 [2]: 1000 mg/kg
Activity (SW-620): 15.13%
Activity (MCF7 [3]): 1.29%
Activity (MCF7 [4]): 2.2%
LD50 [5]: 1450 mg/kg
Activity (Homo sapiens): >=75%
MED (Cavia porcellus): 75 mg
LD50 [6]: 2200 mg/kg

SMILES: CCCCNC(=N)NC(=N)N [BUFORMIN]
MED (Cavia porcellus): 20 mg

SMILES: CC1(C)N=C(N)N=C(N)N1OCCCOc1cc(Cl)c(Cl)cc1Cl
IC50 (Plasmodium falciparum [7]): 0.05 ng/mL (≈ 0.000127 µM)
bioavailability [8]: ≤ 1%

MIC (Clostridium septicum): 300 µg/mL (≈ 631 µM)
MIC (Streptococcus pyogenes): 760 µg/mL (≈ 1600 µM)
SMILES: N=C(NC(=N)N1CCN(C(=N)NC(=N)Nc2ccc(Cl)cc2)CC1)Nc1ccc(Cl)cc1 [PICLOXYDINE]
MIC (Streptococcus): 760 µg/mL (≈ 1600 µM)

SMILES: N=C(N)NC(=N)NCCc1ccccc1 [PHENFORMIN]
MED (Cavia porcellus): 7.5 mg

SMILES: N=C(N)/N=C(\N)N1CCOCC1 [MOROXYDINE]
LD50 [5]: > 6250 mg/kg
LD50 [6]: 225 mg/kg

IC50 (Plasmodium falciparum [7]): 326 ng/mL (≈ 0.822 µM)
IC50 (Plasmodium falciparum [9]): 0.532 µg/mL (≈ 1.34 µM)
SMILES: CC(C)/N=C(N)/N=C(\N)NOCCCOc1cc(Cl)c(Cl)cc1Cl

EC50 [12]: 1 pM
SMILES: CC1(C)N=C(N)N=C(N)N1OCc1ccc(Cl)c(Cl)c1 [CLOCIGUANIL]
Ratio ED50 (Plasmodium berghei [10]): 10
Ratio ED50 (Plasmodium berghei [11]): 30
